Laboratory results: paper PMC4971421, “Redox-Dependent Modulation of T-Type Ca^2+ Channels in Sensory Neurons Contributes to Acute Anti-Nociceptive Effect of Substance P” (Antioxidants & Redox Signaling, 2016)
Ends that are not written are not given here.

Key:
[1] = test system: T-type Ca^2+ channels (LVA Ca^2+ current) in DRG neurons; assay: LVA (T-type) Ca2+ current, whole-cell patch clamp, cultured small-diameter DRG neurons; assay type: cell-based, rat; conditions: 1 nM; mean ± SEM, n = 7; SEM
Procedure: (§1) DRG neurons from adult male Sprague–Dawley rats (170–180 g) were dissociated as previously described ([13], [29]) and cultured in DMEM supplemented with GlutaMax I, 10% fetal calf serum, penicillin (50 U/ml), and streptomycin (50 μg/ml) on glass coverslips that were coated with poly-D-lysine for 2–5 days in a humidified incubator (37°C, 5% CO2). No growth factors were added to the culture media. HEK 293 cells were cultured in the same DMEM media; cells were passaged every 2 days. Human NK1 receptor (GenBank accession No. AY462098) complementary DNA (cDNA) was from the Missouri Science and Technology cDNA Resource Center. WtCaV3.1 (GenBank accession No. AF027984), wtCaV3.2 (GenBank accession No. AF051946), CaV3.1Q172H, and CaV3.2H191Q were kindly provided by Dr E. Perez-Reyes (University of Virginia). HEK293 cells were transfected using Lipofectamine 2000 (Invitrogen) according to the manufacturer's instructions. ST101 was synthesized in house; Z944 was from Toronto Research Chemicals; PTX was from Enzo Life Science; and FluoZin-3AM was from Life Technologies. All other chemicals were from Sigma.
All recordings were made using Multiclamp 700B amplifier in combination with pCLAMP 10.4 software (Molecular Devices). Voltage-clamp recordings from DRG neurons were made using whole-cell patch clamp. The standard bath solution contained the following (in mM): 150 TEA-Cl; 2.5 CsCl; 2.5 CaCl2; 10 HEPES; 0.5 MgCl2; and 10 glucose (pH 7.4 adjusted with CsOH). The standard pipette solution contained the following (in mM): 110 CsCl; 3 MgCl2; 10 EGTA; 10 HEPES; 3 Mg-ATP; and 0.6 GTP (pH 7.4 adjusted with CsOH). The access resistance was typically within 4–8 MΩ. T-type calcium currents (LVA) were measured by 50 ms square voltage pulses to −40 mV from a holding potential of −90 mV. HVA currents were measured by 200 ms square voltage pulses to 0 mV from a holding potential of −90 mV.
where y is the current inhibition; A1 and A2 are the maximum and minimum effects, respectively; x is the S9SP concentration; and nH is the Hill coefficient.

[2] = test system: high-voltage-activated (HVA) Ca^2+ currents in DRG neurons; assay: HVA Ca2+ current, whole-cell patch clamp, DRG neurons; assay type: cell-based, rat; conditions: 1 nM
Procedure: as §1, with “ST101 was synthesized in house; Z944 was from Toronto Research Chemicals; PTX was from Enzo Life Science; and FluoZin-3AM was from Life Technologies. All other chemicals were from Sigma.” left out
All recordings were made using Multiclamp 700B amplifier in combination with pCLAMP 10.4 software (Molecular Devices). […] T-type calcium currents (LVA) were measured by 50 ms square voltage pulses to −40 mV from a holding potential of −90 mV. HVA currents were measured by 200 ms square voltage pulses to 0 mV from a holding potential of −90 mV.

[3] = test system: small-diameter DRG neurons; assay: DRG neuron excitability, perforated patch current clamp; assay type: cell-based, rat
Procedure: To knock down CaV3.2, DRGs were dissociated as described ([13]); immediately after dissociation, DRG pellets were resuspended in 900 μl DMEM (without GlutaMax I, serum or antibiotics), to which a mixture of 9 μl Lipofectamine RNAiMAX (Invitrogen) and either a mix of three anti-Cacna1h Stealth siRNAs (RSS350285, RSS350286, RSS350287; Life Technologies; 200 nM each) or a scrambled control oligo (Stealth RNAi™ siRNA Negative Control; Life Technologies; 200 nM) were added immediately before resuspension. Cultures were than plated in 50 μl droplets onto glass coverslips that were coated with poly-D-lysine and incubated for 5–6 h; the transfection media were then replaced with full DRG culture medium. Patch-clamp recordings were conducted 24–48 h after the transfection. The following primers were used for reverse transcription polymerase chain reaction (RT-PCR) analysis: • Cacna1h sense: 5′-[…]-3′ • Cacna1h AS: 5′-[…]-3′ • Gapdh sense: 5′-[…]-3′ • Gapdh AS: 5′-[…]-3′
Neuronal excitability was studied using the amphotericin B-perforated patch-clamp current technique ([13]). The extracellular solution contained the following (in mM): 160 NaCl, 2.5 KCl, 5 CaCl2, 1 MgCl2, 10 HEPES, and 8 Glucose. The intracellular solution contained the following (in mM): 145 KCl, 15 NaCl, 5 MgCl2, 10 HEPES, and 250 μg/ml Amphotericin B. The access resistance was typically within […]. APs were generated by an injection of 200 pA current for 1 s from a holding current of 0 pA. Rheobase was determined from a train of current steps from 0 to 400 pA delivered in 20-pA increments. Current clamp recordings were sampled at 12.5 kHz. Bridge balance adjustments were not applied, since only relative changes in Erest, AP number, and rheobase were investigated.

rat hind paw [4] = assay: Nocifensive behavior after intraplantar hind-paw injection; assay type: in vivo; conditions: hind-paw injection 50 μl, 30 min
Procedure: Sprague–Dawley rats (body weight, 170–180 g) were grouped randomly and allowed to acclimate for at least 30 min in a transparent observation chamber before the experiment. Animals received a 50-μl intraplantar injection of ST101 (0.001–10 nmol/site), BK (10 nmol/site), RTG (1–10 nmol/site), Z944 (0.05–5 nmol/site), SP (0.5–5 nmol/site), or saline, respectively, into the right hind paw. For evaluation of the acute “spontaneous” pain, animals were video-recorded for 30 min after the injection and protective (“nocifensive”) behavior was analyzed as time spent licking, biting, lifting, and flinching the injected paw. The analyses were performed by an observer who was unaware of treatment allocations. In the pre-injection experiments, the right hind paw of the animal received a pre-injection of 50 μl Z944 (0.05–0.5 nmol/site), RTG (1–10 nmol/site), SP (0.5 nmol/site), Z944 (0.05–0.5 nmol/site)+RTG (1 nmol/site), or saline; 5 min later, on the same paw, the animal received a further 50-μl injection of BK (10 nmol/site) together with the pre-injection drug mix. Nocifensive behavior was analyzed as described earlier.

rat hind paw [5] = assay: Hargreaves test, paw withdrawal latency to noxious heat; assay type: in vivo; conditions: hind-paw injection 0.001 nmol/site; 8 min after injection
Procedure: For measurement of thermal hyperalgesia, the change in the latency of hind-paw withdrawal in response to noxious heat was recorded using the Hargreaves’ plantar method (Ugo Basile) at 8 min after the hind-paw injection of drugs; the heat source was set to 25% of the maximal intensity.

rat hind paw [6] = assay: von Frey test; assay type: in vivo; conditions: 50 μl; 0.001 nmol/site; filaments 2–15 g; 8 min after injection
Procedure: (§2) For measurement of sensitivity to gentle touch and mechanical hyperalgesia, two methods were used. (i) Cotton swab test was performed as previously described ([53]). Briefly, rats were allowed to acclimate in a cage with a wire mesh bottom for at least 30 min and then were manually probed with a “cotton swab” pulled from a Q-tip (to approximately three times the original size). A swab was applied in a sweeping motion underneath the rats’ paws, and the withdrawal responses were recorded. Five sweeps were applied in each test, with at least 10 s between each sweep; withdrawal score was calculated as a percentage of positive responses. (ii) The von Frey test was performed using a calibrated range of filaments with different bending forces (2, 4, 6, 8, 10, and 15 g; Stoelting Co.). A single filament was applied perpendicularly to the plantar surface of the hind paw for five times, with an interval of 5 s, and it was scored for withdrawal responses. Each force was probed five times, the number of withdrawals out of five trials was counted, and the percentage of withdrawal responses was calculated. Both types of assays were performed 8 min after the hind-paw drug injection.

rat hind paw [7] = assay: Cotton swab test (gentle touch); assay type: in vivo; conditions: 50 μl; 0.001 nmol/site
Procedure: as §2

[8] = test system: delayed-rectifier K^+ current in DRG neurons; assay: Delayed-rectifier K+ current in DRG neurons; assay type: cell-based, rat; conditions: 1 nM
[9] = test system: voltage-gated Na^+ current in DRG neurons; assay: Voltage-gated Na+ current in DRG neurons; assay type: cell-based, rat; conditions: 1 nM
CaV3 = conditions: cited from earlier work
Procedure: The T-type Ca^2+ current is an important regulator of sensory neuron excitability ([10], [17], [18], [20], [23], [24], [51], [71], [75]). […] Z944 (1 μM) inhibited LVA curren ...

Compound	enhancement of peak LVA current [1]	effect on HVA current [2]	resting membrane potential (Erest) [3]	action potential (AP) firing ([3]; 200 pA for 1 s)	small DRG neuron excitability ([3]; perforated current clamp)	effect on Erest, AP number, or rheobase in Cacna1h knocked-down neurons ([3]; siRNA against Cacna1h)	nocifensive behavior (rat hind paw [4]; 0.001–10 nmol/site)	paw withdrawal latency on radiant heat exposure (rat hind paw [5])	response to von Frey filament stimulation (rat hind paw [6])	sensitivity to light touch, cotton swab assay (rat hind paw [7])	effect on delayed-rectifier K^+ current [8]	effect on voltage-gated Na^+ current [9]	EC50, CaV3 potentiation (CaV3)	AP number ([3]; 250 nM)	Erest ([3]; 250 nM)	rheobase ([3]; 250 nM)	nocifensive behavior (rat hind paw [4]; 10 nmol/site)
O=C1N=C2C=CC=CN2C12Cc1ccccc1C2 [ST101, spiro[imidazo[1,2-a]pyridine-3,2-indan]-2(3H)-one]	50.6% ± 14.1%	without an effect	depolarized	significantly increased	increased	neither Z994 nor ST101 produced any significant effect	moderate but significant protective effect	significantly reduced	greatly increased response rates	ineffective	no effect	no effect	sub-nanomolar range	–	–	–	–
RPPGFSPFR [BK, bradykinin, pro-algesic signaling peptide]	–	–	–	–	–	–	–	–	–	–	–	–	–	increased	depolarized	significantly reduced	strong nocifensive response
